SMILES strings stand for the structures.

From US20200002327A1, “THERAPEUTIC AGENT FOR ANXIETY DISORDERS” (KYOWA HAKKO KIRIN CO., LTD., priority 2009, published 2020) come the findings set out here.

Test [1] relates to rats. Kind of test: Yohimbine-induced anxiety-like behavior in rat social interaction test. The test is classed as in vivo. Here is the method:
The male SD rats (weighing 201.8 to 285.6 g; Charles River Japan Inc.)were used in this study. On the day of behavioral evaluation, the animals were acclimatized to the test environment from 4 hours before the start of the experiment. Sixty minutes after oral administration of a vehicle (0.5 w/v % MC solution) or a test compound (prepared in suspension in 0.5 w/v % MC solution to obtain a dosing concentration of 0.5 mL per 100 g of rat body weight), two rats were allowed to meet each other in an acrylic box (50×50×50 cm). The total time of social interaction behaviors (sniffing, following, grooming and the like) during monitoring for 10 minutes immediately after meeting (between-rats interaction time) were measured with a stopwatch. Using the method of Test Example 4, the effect of a compound on the anxiety induced with administration of an anxiogenic substance was examined. Yohimbine (adrenalin α2 receptor antagonist) is known as one of the anxiogenic substance. It is thought that locus coeruleus hyperactivity that accompanies α2 receptor antagonizing action is contributory to the anxiety-inducing action of Yohimbine. Anxiety symptoms that develop with administration of Yohimbine to healthy persons were reported to be similar to panic disorders, in the pathophysiology of which abnormal locus coeruleus activity is considered to be largely involved. […]

Test [2] relates to rats. Kind of test: mCPP-induced anxiety-like behavior in rat social interaction test. In kind it is in vivo. Here is the method:
(§1) The male SD rats (weighing 201.8 to 285.6 g; Charles River Japan Inc.)were used in this study. On the day of behavioral evaluation, the animals were acclimatized to the test environment from 4 hours before the start of the experiment. Sixty minutes after oral administration of a vehicle (0.5 w/v % MC solution) or a test compound (prepared in suspension in 0.5 w/v % MC solution to obtain a dosing concentration of 0.5 mL per 100 g of rat body weight), two rats were allowed to meet each other in an acrylic box (50×50×50 cm). The total time of social interaction behaviors (sniffing, following, grooming and the like) during monitoring for 10 minutes immediately after meeting (between-rats interaction time) were measured with a stopwatch.
Meanwhile, meta-chlorophenylpiperadine hydrochloride (mCPP) is an anxiogenic substance having a 5-HT2 receptor stimulation action. It was reported that mCPP induced anxiety symptoms in healthy subjects and aggravated the symptoms of generalized anxiety disorder in humans. The mCPP-induced anxiety response is an experimental model that well reflects anxiety (for example, generalized anxiety disorder) caused by abnormal signaling especially via 5-HT2 receptors.
Next, the effect on mCPP-induced anxiety was examined. […]

Test [3] deals with male ICR mice. Description: Marble burying behavior test in mice. The test is classed as in vivo. To be noted: 3 mg/kg oral, 1 hour before test; marbles counted after 30 minutes; significant. The text has this:
This test is known as one of the test systems for anxiolytics (Folia Pharmacologica Japonica, 126, p. 94 (2005)). Marble-burying behavior is a behavior of the mouse to bury marbles in spread planer bedding on which the marbles were placed, and is suppressed, without being accompanied by motor inhibition, by selective serotonin reuptake inhibitors (SSRIs). Since the behavior of the mouse to attempt to cover and bury harmless marbles in planer bedding is apparently similar to compulsions in patients with obsessive-compulsive disorders that are repeated while they recognize them as being unreasonable, and also since SSRIs are effective as therapeutic drugs for obsessive-compulsive disorders, and for other reasons, the marble burying behavior is getting positioned as an animal model of obsessive-compulsive disorder
The male ICR mice (weighing 27.6 to 42.9 g; Japan SLC, Inc.) were used in this study. […] At 30 minutes later, the number of marbles more than half-buried in the planer was counted. […]
The effects of the drug are expressed as the actually measured number of buried marbles and the inhibition rate calculated by the following equation.

Test [4] relates to male SD rats. Description: Elevated plus maze test in rat. In kind it is in vivo. To be noted: 0.1 mg/kg oral. From the text: In this test, a conflict arises between rodent's exploratory drive and an innate aversion to bright open new spaces (open arms), accordingly, it has been reported that drugs having anti-anxiety activity increase the time spent in the open arms and the number of open arm entries, while anxiogenic substance decreases these parameters (Japanese Journal of Clinical Psychopharmacology, 9, p. 2389 (2006)). This test is thought to be an animal model of generalized anxiety disorders (Folia Pharmacologica Japonica, 115, p. 5 (2005), Japanese Journal of Clinical Psychopharmacology, 9, p. 2389 (2006)).
The male SD rats (weighing 133.8 to 260.2 g; Charles River Japan Inc.) were used in this study. An apparatus was used wherein two open arms (50×10 cm) extending on the same line from a 10 cm-square central area and two enclosed arms (50×10 cm) surrounded by a wall of 40 cm height are perpendicularly crossing. Sixty minutes after oral administration of a vehicle (0.5 w/v % MC solution) or a test 20 compound (a suspension in 0.5 w/v % MC solution prepared to obtain a dosing concentration of 0.5 mL per 100 g of rat body weight), each rat was placed in the center of the elevated plus maze with its head facing toward the enclosed arm and immediately observed for its behavior for 5 minutes. The rat behavior on the maze was recorded with a digital video camera positioned on the ceiling of the laboratory. The times spent and number of entries in the open arms, enclosed arms and central platform, and distance travelled were determined using analysis software. The time spent in the open arms, percentage of open arm entries (ratio of the number of entries in the open arms to the total number of entries in the open and enclosed arms) and total distance travelled on the maze during the monitoring period were determined to evaluate the influences of the test compound.

The test system of test [5] is male SD rats. Kind of test: Rat social interaction test. In kind it is in vivo. The conditions noted are these: 0.3 mg/kg oral.
Excerpt: It is known that these social interactions increase with administration of existing anxiolytics. This test is thought as an animal model of social phobia or generalized anxiety disorders because it is consider that contradictory social environments between two rats cause stress (Eur. J. Pharmacol., 408, p. 41 (2000)).
as §1

Test [6] deals with male SD rats. Kind of test: Conditioned fear stress (CFS) test in rats. In kind it is in vivo, rat. To be noted: 0.3 mg/kg, 60 min before retention trial. The text has this: In this test (Folia Pharmacologica Japonica, 113, p. 113 (1999)), the influences of psychological stress resulting from past aversion experience on living organisms can be measured as behavioral suppression (freezing reaction) or autonomic nervous system hyperactivity (increases in respiratory rate and blood pressure).
The male SD rats (weighing 140.2 to 320.0 g; Charles River Japan Inc.) and a contextual learning test system were used in this study. The experimental apparatus is consisted of a soundproof box, and a test cage (20×20×25 cm), a shock generator, a controller, an external monitor and PC analysis system, which were placed in the soundproof box. The test cage has stainless bars on the floor at 1-cm intervals. A scrambled electric current was generated from the shock generator using 35 a command of the special program . The inside of the soundproof box was equipped with a speaker. A buzzer sound of 65 dB was generated via the controller using a command of the special program. The animal behavior within the test cage was recorded with a CCD camera, which was positioned on the ceiling of the soundproof box. […] The percentage of freezing behavior was determined by (Freezing time/Test time)×100. […] According to the same schedule as that on the previous day, only a buzzer sound was generated six times and the duration of freezing behavior was measured. […]

Test [7] deals with male Wistar rats. Kind of test: Vogel conflict test in rats. The test is classed as in vivo, rat. The conditions noted are these: 0.03 mg/kg oral, 60 minutes before; 5 min session; vehicle 6.1±0.8 times; P=0.003846, Steel-test. Here is the method:
This test is to measure drinking counts (number of shocks during drinking) when an electric shock is applied to a water-deprived rat at each time that the rat drinks water. Under this condition, a rat is thought to be placed under a state of conflict between the motivation to drink (positive reinforcing factor) and the aversion to receiving an electric shock (negative reinforcing factor, punishment). When anxiolytics are administered to a rat, anxiety about punishing stimuli is suppressed and behavior in an attempt to take a positive reinforcer is observed. This test is thought to be an animal model of generalized anxiety disorders (Folia Pharmacologica Japonica, 115, p. 5 (2005), Japanese Journal of Clinical Psychopharmacology, 9, p. 2389 (2006)).
The male Wistar rats (weighing 148.4 to 211.7 g; Japan SLC, Inc.) and an operant experimental apparatus were used in 20 this study. The chamber consisted of a soundproof box, and a test cage (25×30×25 cm), a shock generator, a controller, a licking sensor and PC analysis system placed in the soundproof box. […] Current conduction by licking (drinking) was detected with the licking senor and measured with the PC analysis system via the controller. […] Twenty nozzle licks were counted as one drinking response and drinking frequency (drinking count) was determined (pre-value). […]

On to `COC(=O)[C@@H]1[C@H]2C[C@H]3c4[nH]c5ccccc5c4CCN3C[C@@H]2CC[C@@H]1O` [Yohimbine, reference compound], for which, in test [1] (Yohimbine 5 mg/kg oral, 30 minutes before measurement, vehicle 90.6±7.1 seconds, P=0.0010, Aspin-Welch test), the “between-rats interaction time (Yohimbine alone)” value was 57.6 ± 3.4 s.
`Cl.Clc1cccc(N2CCNCC2)c1` [mCPP, meta-chlorophenylpiperadine hydrochloride, reference compound]: in test [2] (mCPP 0.5 mg/kg oral, 30 minutes before measurement, vehicle 83.4±5.1 seconds, P<0.001, Student's t-test), the “between-rats interaction time (mCPP alone)” value is 32.5 ± 3.6 s.
Consider `Cc1ccc(C(=O)Nc2nc(-c3ccco3)c(C(=O)C3CCOCC3)s2)cn1` [compound (IC)], for which, in test [3], the “% inhibition of mouse marble burying behavior” value was 73.7%. Also, the “time spent in the open arms” value in test [4] (60 min before, 5 minutes, vehicle 21.6 ±7.4 seconds, P=0.01687, Steel test) is 61.6 ± 10.9 s. Also, the “percentage of open arm entries” value in test [4] (vehicle 15.5±3.0%, P=0.04759, Steel test) is listed as 33.4±6.3%. For the same molecule, the “total distance travelled on the maze” value in test [4] (vehicle 2521.97±95.34 cm, not affected) worked out at 2414.83±102.13 cm. Further, the between-rats interaction time in test [5] (60 min before, 10 min monitoring, vehicle 85.2 ±7.6 seconds, P=0.01545, Dunnett test) came to 119.3 ± 9.0 s. In test [5] (vehicle 8635.3 ±506.4 counts, P<0.001, Dunnett test), this molecule returned a spontaneous activity of 12922.7 ±646.8 counts. The molecule also showed a percentage of freezing behavior in the post-tone period in test [6] (vehicle 59.8±9.6, P=0.01559, Dunnett test) of 23.4 ± 8.1%. In addition, the percentage of freezing behavior in the with-tone period in test [6] (vehicle 90.2±2.6, P=0.02867, Steel test) came to 57.1 ± 9.9%. Besides, the “between-rats interaction time (improvement of reduction by Yohimbine)” value in test [1] (0.03 mg/kg, 30 minutes before Yohimbine (5 mg/kg), Yohimbine alone 57.6±3.4 seconds, P=0.00019, Steel test) was determined as 90.3 ± 5.0 s. The “between-rats interaction time (improvement of reduction by mCPP)” value in test [2] (0.3 mg/kg, 30 minutes before mCPP (0.5 mg/kg), mCPP alone 32.5±3.6 seconds, P<0.001, Dunnett test) came to 62.4 ± 6.9 s. The “number of electric shocks received (drinking count, test-punished session)” value in test [7] is given as 12.7±1.7 times.
